Each compound was assayed against T1, SIR2 related protein 2 (LdSIR2RP2) (Leishmania donovani, UniProt A0A3S7WXV8) (assay: […]NAD+ ADP-ribosyltransferase assay on calf thymus histones, SDS-PAGE/PhosphorImager).
T1 construct: gene LdCL_230021600; full-length recombinant LdSIR2RP2 (complete ORF, 320 aa; MBP/His tag removed by TEV)
Format: biochemical

T1 sequence (A0A3S7WXV8 entry or part of it): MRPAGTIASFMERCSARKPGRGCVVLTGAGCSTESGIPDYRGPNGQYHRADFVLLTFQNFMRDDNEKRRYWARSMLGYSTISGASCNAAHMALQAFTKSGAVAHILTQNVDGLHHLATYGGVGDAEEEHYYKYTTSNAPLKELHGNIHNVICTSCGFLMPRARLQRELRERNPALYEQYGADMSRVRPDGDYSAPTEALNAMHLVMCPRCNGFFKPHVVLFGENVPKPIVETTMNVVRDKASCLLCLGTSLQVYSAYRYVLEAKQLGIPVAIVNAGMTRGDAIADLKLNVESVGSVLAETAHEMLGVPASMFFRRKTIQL

| SMILES | [32P]NAD+ ADP-ribosyltransferase assay on calf thymus histones, SDS-PAGE/Phospho |
| --- | --- |
| NC(=O)C1CCCc2c1[nH]c1ccc(Cl)cc21 (stereo not drawn) [Ex-527, 6-chloro-2,3,4,9-tetrahydro-1H-carbazole-1-carboxamide] | ~ 50 μM |
| O=c1[nH]c(=S)[nH]c(-c2ccccc2)c1Cc1c(O)ccc2ccccc12 [cambinol] | ~ 2.5 μM |
| NC(=O)c1cccnc1 [nicotinamide] | ~ 50 μM |
